Laboratory results: patent US9487555B2, “Prodrug of an ice inhibitor” (VERTEX PHARMACEUTICALS INCORPORATED, priority 2000, dated 2016)

Experiment: Oral pharmacokinetic studies in rats (quantitation of ICE inhibitor in rat plasma by HPLC/MS/MS)
Format: in vivo, Male Sprague-Dawley rats
Conditions: for Bioavailability (in words): amount of ICE inhibitor in rat plasma after oral administration, comparison in words; for AUC: male Sprague-Dawley rats, oral 50 mg/kg in 100% propylene glycol, plasma, noncompartmental
Experimental: Applicants studied a number of prodrug ICE inhibitors, including examples listed in the aforementioned WO 99/47545. Bioavailability was determined by quantitating the amount of ICE inhibitor in rat plasma after oral administration, as described below.
Male Sprague-Dawley rats (Harlan, Indianapolis, Ind., 300-350 g) were anesthetized by an intramuscular injection of ketamine/rompun mixture. A PE-50 cannula was inserted in the right carotid artery for arterial blood sampling. The rats were allowed to recover from surgery overnight (16 hours) prior to being used in the study. Test compounds were administered orally at 50 mg/kg 100% propylene glycol (PG) at a dose volume of 10 mL/kg. Blood samples (˜0.30 mL) were removed at 0.25, 0.50, 1.0, 1.5, 2, 3, 4, 6, and 8 hours post-dose, plasma separated by centrifugation and stored at −80° C. pending analysis. Quantification of the plasma samples was conducted using a gradient HPLC/MS/MS similar to the one detailed below: […]
HPLC/MS/MS Method for the Quantitation of ICE Inhibitors in Rat Plasma
1. 100 μl of plasma are aliquotted into Ependorf centrifuge vials.
2. An equal volume of acetonitrile is added to the plasma to precipitate plasma proteins.
3. Samples are vortexed for 2 minutes, and centrifuged at 14,000 rpms for 3 minutes.
4. 100 μl of the supernatant is loaded into 12 mm HPLC liquid sampler vials.
5. A 20 μl addition of […] standard is added to the 100 μl aliquot to monitor variation in instrumental response.
6. 10 μl of sample is injected for analysis via the mass spectrometer.
HPLC Instrumental Parameters
• HPLC: Hewlett Packard HP1100 Binary Solvent Delivery System. HPLC Gradient Conditions • A=H2O 0.2% Formic Acid • B=Acetonitrile 0.2% Formic Acid Mobile Phase
• HPLC Analytical Column: Keystone Phenyl-1 Hypersil 2.0×100 mm, 5μ 120 Å pore pore size, P/N# 105-36-2. • Injection Volume: 10 μl • Flow Rate: 0.20 mL/min. Mass Spectrometry Instrumental Parameters • Instrument: Micromass Quattro Ultima, Tandem Mass Spectrometer • Ionization Technique: Orthogonal spray (ESI) • Polarity: Positive • Dwell Time: 300 msec • Pause Time: 5 msec • Scan time: 0.9 sec • Scan Mode: MRM (Multiple Reaction Monitoring) • Ions/Transitions: For compound I-A m/z509.1-243.1 • For compound II m/z481.1-215.1 Pharmacokinetic Parameters
Pharmacokinetic analysis of these plasma concentration data was conducted using noncompartmental methods. The area under the curve (AUC(0-t)) was estimated from time zero to the last measured time point using the linear trapezoidal rule. The rate of elimination (ke) was estimated by log-linear regression from the terminal phase of the plasma concentration-time curves. Area under the tail of the curve was estimated as the ratio of the last measured concentration to ke. The area under the curve from time zero to infinity (AUC(0-∞)) was obtained by addition of the area under the tail to AUC(0-t). Elimination half-life was estimated as 0.693/ke. The observed values for the peak plasma concentration (Cmax) were recorded.

Bioavailability (in words) | AUC | Compound
poor bioavailability |  | CC(C)(C)C(NC(=O)c1ccc(N)c(Cl)c1)C(=O)N1CCCC1C(=O)NC(C=O)CC(=O)O (centres unmarked) [II]
unexpectedly improved bioavailability | 11.7 μgXh/mL | CCO[C@@H]1OC(=O)C[C@@H]1NC(=O)[C@@H]1CCCN1C(=O)[C@@H](NC(=O)c1ccc(N)c(Cl)c1)C(C)(C)C [Compound I]
 | 1.35 μgXh/mL | CCOC1OC(=O)C[C@@H]1NC(=O)[C@@H]1CCCN1C(=O)[C@@H](NC(=O)c1nccc2ccccc12)C(C)(C)C (some centres unmarked) [Compound B, reference compound]
 | 2.18 μgXh/mL | CCO[C@@H]1OC(=O)C[C@@H]1NC(=O)[C@@H]1CCCN1C(=O)[C@H](C)NC(=O)c1ccc(N)c(Cl)c1 [Compound A, reference compound]
